In US20200079757A1, “COMPOUNDS FOR THE TREATMENT OF RESPIRATORY DISEASES” (THE UNIVERSITY OF MELBOURNE, priority 2017, published 2020):

Legend:
liver gene expression = assay: Liver fibrogenic gene expression after oral (gavage) dosing in bleomycin-treated mice; assay type: in vivo, mouse; conditions: female C57BL6 mice, 30 mg/kg po once daily day −1 to 3, 3 days after transnasal bleomycin
Protocol: FIG. 11. The effects of oral (gavage) PF670462 or […] were investigated in female C57BL6 mice, with a focus on liver gene expression. […] Data are presented as mean±SEM (n=4). In studies to ascertain the effect of oral administration of either PF670462 or SS8-058 we harvested the liver on day 3 from mice that had been treated transnasally with bleomycin on day 0 to measure gene expression of products that are implicated in fibrogenesis. Mice were treated once daily by gavage from day −1 to day 3 with either PF670462 or SS8-058 (30 mg/kg, po).

[1] = system: ovalbumin (OVA)-sensitized BALB/c mice; assay: Airway hyper-responsiveness to methacholine in acute ovalbumin-induced asthma model; assay type: in vivo, mouse; conditions: inhaled, estimated deposited dose 1 μg, day 21 to 28
[2] = system: TNF-stimulated BEAS-2B cells; assay: TNF-α-induced IL-8 and CSF-2 (GM-CSF) mRNA and supernatant protein in BEAS-2B cells (RT-qPCR, ELISA); assay type: cell-based; conditions: 1-10 μM 30 min prior to TNF-α 10 ng/ml 24 h, maximal at lowest concentration
Protocol: The primary assay for the activity of the novel CK1δ/ε inhibitors is the modulation of gene expression in the airway epithelial cell line, the BEAS-2B cells. The assay is conducted under several conditions. Generally, TGF-β or TNF-α is used to elicit fibrogenic or inflammatory genes, respectively. The agents are added at a concentration of 10 μM, or at the indicated concentrations for a period of 30 min prior to the addition of TGF-β/TNF-α which are incubated for a further 20 hours before the addition, in some experiments of the glucocorticoid, dexamethasone (Dex, 30 nM) for the final 4 hours of the experiment, prior to harvest of cellular RNA to measure by RT-qPCR the levels of mRNA of marker genes for inflammation and fibrogenesis. The inhaled corticosteroid (ICS), budesonide is also used in some experiments. Furthermore, the supernatants are harvested at the end of the incubation periods in selected experiments to measure the levels of CSF-2 or IL-8 by ELISA as described in (Tran et al. (2005) British Journal of Pharmacology, 145, 123-131). […] The threshold cycle (CT) values determined for target genes were normalized against those obtained for 18S ribosomal RNA (18S rRNA), which was included as internal control. […] RNA was extracted and measured by RT-qPCR. Pro-inflammatory cytokines in the supernatants were measured by ELISA. […]

[3] = system: Bleomycin Model of Pulmonary Fibrosis; assay: Bleomycin model of pulmonary fibrosis: BAL protein, BAL cells, lung gene expression; assay type: in vivo, mouse; conditions: female C57BI/6 mice; for bleomycin-induced BAL cell number / bleomycin-induced BAL protein: day −1 to 3
Protocol: All animal experiments were carried out in accordance with ethical guidelines from the University of Melbourne Animal Ethics Committee (AEEC #1513736.1). Six- to 8-week old 20-25 g C57BI/6 mice (ARC, Perth, Australia) received treatment with 35 μL of saline or bleomycin (105 mU per mouse) on day 0 through intranasal administration, as previously described (Langenbach et al., (2007). Can J Physiol Pharmacol, 85, 727-738). Acute and chronic bleomycin mouse models were used to assess the effect of SS9-010 on pulmonary fibrosis in vivo. SS9-010 was administered systemically through intraperitoneal injection or locally to the lungs through inhalation of an aerosol generated using an oxygen concentrator connected to a hudson nebuliser operating at 5 L/min for 15 minutes. […] Mice were allowed food and water ad libitum for the duration of all studies. At the end of each study, bronchoalveolar lavage (BAL) was performed from which leukocyte cell types were enumerated and acelluar protein content was determined as previously described (Langenbach, et al., 2007), lungs were dissected and snap frozen. Gene expression were determined from pulverised frozen lung tissue. Total protein content in acellular BAL fluid was assessed using the BioRad protein assay method. BAL cells in BAL fluid were stained with Erythrosin B (EB) and counted manually with the aid of a hemocytometer. Total BAL cell number was calculated by accounting for the return volume of BAL fluid. The effects of inhaled SS9-010 on bleomycin-induced BAL protein leakage, BAL cell recruitment, lung weight, as well as lung fibrogenic gene expression in mouse lungs are shown in FIG. 9. Female C57BI/6 mice received a transnasal dose of bleomycin or saline on day 0. SS9-010 was administered day −1 to day 3 by daily inhalation of aerosol generated by nebulizing from a concentration of 1 mg/mL for a period of 15 min once daily. Bronchoalveolar lavage (BAL) protein and BAL cell number were assessed. Lung fibrogenic gene expression was also assessed on day 3. Data are presented as mean±SEM (n=6). […] The effects of intraperitoneal injection of SS9-010 on bleomycin-induced BAL protein leakage, BAL cell recruitment, and lung fibrogenic gene expression in mouse lungs are shown in FIG. 10. Female C57BI/6 mice were […] administered bleomycin or saline on day 0. SS9-010 (3 or 10 mg/kg/day, ip) was administered from day −1 to 3. […] Lung fibrogenic gene expression was also assessed on day 3. Data are presented as mean±SEM (n=4 sal, n=5 other groups). Systemic SS9-010 (3 or 10 mg/kg/day, ip) had no effect on BAL protein or BAL cell number. Induction of IL-6 was reduced by SS9-010 treatment, whereas arginase-1 was not.

[4] = inhaled aerosol 1 mg/mL 15 min once daily

Compound | liver baseline mRNA level of PAI-1 (liver gene expression) | liver baseline mRNA level of TMP1 (liver gene expression) | OVA-induced increase in central airway resistance (Rn) to methacholine [1] | OVA-induced increase in elastance to methacholine [1] | compliance changes, OVA/SS9-010 compared to OVA alone [1] | TNF-α-induced IL-8 expression and immunoreactive IL-8 in supernatant [2] | induction of IL-6 (lung gene expression) ([3]; 3 or 10 mg/kg/day ip, day 3) | bleomycin-induced BAL cell number ([3]; 3 or 10 mg/kg/day ip) | bleomycin-induced BAL protein ([3]; 3 or 10 mg/kg/day ip) | bleomycin-induced BAL cell number [3, 4] | bleomycin-induced BAL protein [3, 4] | lung fibrogenic gene expression ([3]; inhaled aerosol 1 mg/mL 15 min once daily, day −1 to 3, assessed day 3)
CCCCCCCCN1CCC(n2cnc(-c3ccc(F)cc3)c2-c2ccnc(N)n2)CC1 [SS8-058, 4-(4-(4-Fluorophenyl)-1-[1-octylpiperidin-4-yl]-1H-imidazol-5-yl)pyrimidin-2-amine] | significant reductions | significant reductions |  |  |  |  |  |  |  |  |  | 
CNc1nccc(-c2c(-c3ccc(F)cc3)ncn2C2CCCCC2)n1 [SS9-010, 4-(1-Cyclohexyl-4-(4-fluorophenyl)-1H-imidazol-5-yl)-N-methylpyrimidin-2-amine] |  |  | attenuated | attenuated | No significant difference | active inhibitors | reduced | no effect | no effect | modest suppression | showed an effect | showed an effect
Cl.Nc1nccc(-c2c(-c3ccc(F)cc3)ncn2C2CCCCC2)n1 [PF670462, 4-(1-Cyclohexyl-4-(4-fluorophenyl)-1H-imidazol-5-yl)pyrimidin-2-amine hydrochloride, reference compound] | significant reductions | significant reductions |  |  |  | active inhibitors |  |  |  |  |  | 
